{
  "source": "patent US7749962B2",
  "about": "“Alpha 5 beta 1 and its ability to regulate the cell survival pathway” (University of Medicine & Dentistry of NJ, priority 2002, dated 2010)",
  "key": {"Akt [1]": {"system": "Akt", "test": "Western blot of Akt phosphorylation after ATRA", "assay_type": "cell-based", "protocol": "MCF-7 cells were treated with EGF 100 ng/ml for 10 min followed by ATRA 10^−7 M or control media 2 h later for an additional 24 h. Western blots of lysates were stained with anti-phospho-Akt ab. Cells were harvested and lysates were prepared as described^2 and analyzed as before^3."}, "RhoA": {"target": "RhoA (Homo sapiens, UniProt P61586)", "sequence (P61586 whole entry, species assumed)": "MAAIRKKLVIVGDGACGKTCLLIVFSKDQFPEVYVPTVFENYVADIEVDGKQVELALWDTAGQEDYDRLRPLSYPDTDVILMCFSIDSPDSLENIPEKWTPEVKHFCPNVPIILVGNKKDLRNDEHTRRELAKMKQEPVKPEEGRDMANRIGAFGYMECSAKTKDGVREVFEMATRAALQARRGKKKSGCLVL", "details": "target RhoA, cited from earlier work"}, "MCF-7 and T-47D cells": {"system": "MCF-7 and T-47D cells", "test": "Clonogenic potential with growth factors in tissue culture", "assay_type": "cell-based", "details": "growth factor 10 ng/ml", "protocol": "(§1) One thousand MCF-7 or MDA MB-231 cells per well were incubated in 24 well tissue culture plates with and without the presence of 10 ng/ml basic fibroblast growth factor (FGF-2) or epidermal growth factor (EFG). Plates were stained with crystal violet after a 5 day incubation and clones consisting of A. 29±2 cells and B. 8±2 cells were counted. C. Ten thousand T-47D cells per well were incubated in 24 well tissue culture plates coated with fibronectin with and without the presence of 10 ng/ml basic fibroblast growth factor (FGF-2) or epidermal growth factor (EFG). Plates were stained with crystal violet after 3 days and clones consisting of 8 or more cells were counted.\n(§2) MCF-7 and T-47D (1,000 cells/well) and MDA MB-231 (200 cells per well) were incubated in 24 well plates±10 ng/ml EFG or FGF-2 for 6 days, stained with crystal violet and clones with ≧29 actively growing cells (▪) or with ≦10 well spread, growth arrested cells ( ? ) were counted.\n(§3) MCF-7, SK-Br-3, MDA-MB-231, PC-3 and LNCaP cells were purchased from the American Type Culture Collection (ATCC), (Rockville, Md.). Cells were cultured in Dulbecco's Modified Eagle's Medium (DMEM) (Gibco BRL, Gaithersburg, Md.) with phenol red 15 mg/l, 2 mM glutamine, 10% heat inactivated fetal calf serum (FCS) and penicillin 50 units/ml and streptomycin 50 micrograms μg/ml (Gemini Bioproducts, Calabasas, Calif.). One to ten thousand cells were incubated on 24 well tissue culture plates that were either commercially coated for tissue culture (uncoated) or coated with 20 g fibronectin, laminin I, collagen I or collagen IV, depending on the cell type or experimental conditions described in the figure legends. Colonies were manually counted at 100× magnification after variable days in culture as described in the figure legends after removing the media and staining cells with crystal violet. Proliferation kinetics were performed as before^1 using 2% trypan blue counts on trypsinized cells on the days indicated in the figure in triplicate plates."}, "MDA-MB-231 cells": {"system": "MDA-MB-231 cells", "test": "Clonogenic potential with growth factors in tissue culture", "assay_type": "cell-based", "details": "growth factor 10 ng/ml", "protocol": "as §1, §2, §3"}, "integrin α5": {"system": "integrin α5", "test": "Western blot of integrin α5 expression ± FGF-2", "assay_type": "cell-based", "protocol": "A. Gene chip analysis of integrin α5 and β1 mRNA expression in MCF-7 cells incubated±FGF-2 for 3 or 5 days on fibronectin-coated plates. Densitometer quantitations normalized against GAPDH and actin mRNA standards are shown. B. Western blots of integrin α5 from cells incubated±FGF-2 for 3 days on tissue culture- or fibronectin-coated dishes. C. Indirect immunofluorescence of integrin α5 in T-47D cells on cover slips±FGF-2 10 ng/ml for 24 hours. D. Western blots of integrins α2, α3, α4, α6, β1, β3 and β4 in MCF-7 and T-47D cells incubated±FGF-2 for 3 days. Nonspecific bands were as loading controls.\n(§4) Cells were harvested and lysates were prepared as described^2 and analyzed as before^3."}, "Akt [2]": {"system": "Akt", "test": "Western blot of Akt phosphorylation by FGF-2 on fibronectin", "assay_type": "cell-based", "protocol": "Western blots of lysates from MCF-7, T-47D and MDA-MB-231 cells incubated on fibronectin-coated plates with FGF-2 for up to 5 days were stained with antibody to phospho-Akt or total Akt. […] No effect was noted on total Akt levels. Stained membrane was used as a loading control.\nas §4"}, "MCF-7 cells": {"system": "MCF-7 cells", "test": "Clonogenicity ± fibronectin with FGF-2 and fibronectin-blocking peptide", "assay_type": "cell-based", "details": "FGF-2 10 ng/ml; peptide 1 ng/ml added after 3 days, counted 6 days later", "protocol": "10^3 MCF-7 (and T-47D, not shown) cells were incubated±fibronectin with 10 ng/ml FGF-2. Fibronectin-blocking peptide GRGDSP 1 ng/ml (American Peptide Co., Inc, Sunnyvale, Calif.) was added after 3 days and 4, 8 and 12 cell colonies were counted 6 days later.\nas §3"}},
  "note": "Read-outs that look alike come from different tables or passages of the source.",
  "data": [
    {"compound": "CC1=C(/C=C/C(C)=C/C=C/C(C)=C/C(=O)O)C(C)(C)CCC1", "note": "[ATRA, all-trans retinoic acid]", "values": [
      {"measurement": "FGF-2 induced increases in total and phosphorylated Akt", "setting": "Akt [1]", "value": "reversed FGF-2 induced increases in total and Phosphorylated Akt"},
      {"measurement": "EGF-mediated phosphorylation of Akt", "setting": "Akt [1]; MCF-7 cells, EGF 100 ng/ml, ATRA 10^−7 M for 24 h", "value": "reversed the EGF-mediated phosphorylation of Akt"}
    ]},
    {"compound": "C3 transferase", "values": [
      {"measurement": "ED50", "setting": "RhoA", "value": "2 to 5", "unit": "µg/mL"},
      {"measurement": "ED50", "setting": "RhoA; listed as C3 transferase inhibitor", "value": "2 to 5", "unit": "µg/mL"}
    ]},
    {"compound": "EFG: epidermal growth factor; recombinant human, R&D Systems", "values": [
      {"measurement": "clonogenic potential", "setting": "MCF-7 and T-47D cells", "value": "no effect"},
      {"measurement": "growth (clonogenic potential)", "setting": "MDA-MB-231 cells", "value": "no effect"}
    ]},
    {"compound": "FGF-2: fibroblast growth factor 2, basic fibroblast growth factor; recombinant human, R&D Systems", "values": [
      {"measurement": "clonogenic potential", "setting": "MCF-7 and T-47D cells", "value": "markedly diminished clonogenic potential"},
      {"measurement": "growth (clonogenic potential)", "setting": "MDA-MB-231 cells", "value": "no effect"},
      {"measurement": "integrin α5 expression", "setting": "integrin α5; MCF-7 and T-47D cells on plastic or fibronectin-coated dishes", "value": "induction of integrin α5 expression"},
      {"measurement": "integrin α5 expression", "setting": "integrin α5; MDA-MB-231 cells, baseline high levels", "value": "No effect"},
      {"measurement": "phosphorylation of Akt", "setting": "Akt [2]; MCF-7 and T-47D cells on fibronectin, up to 5 days", "value": "induced phosphorylation of Akt"},
      {"measurement": "phosphorylation of Akt", "setting": "Akt [2]; MDA-MB-231 cells on fibronectin, constitutive phosphorylation", "value": "no effect on constitutive Akt phosphorylation"}
    ]},
    {"compound": "GRGDSP", "values": [
      {"measurement": "colonies on fibronectin", "setting": "MCF-7 cells", "value": "only inhibited colonies on fibronectin"},
      {"measurement": "colonies on plastic", "setting": "MCF-7 cells", "value": "not on plastic"}
    ]}
  ]
}
